In ChEMBL document CHEMBL3045652, “Biorational glycol diesters as dietary toxins versus bioefficacy of sucrose octanoate against lepidopteran larvae” (Ind Crops Prod, 2012):
≈ marks a conversion by molar mass, not a printed value.

What was measured:
Spodoptera litura = assay: Insecticidal activity against second-instar larval stage of Spodoptera litura fed with artificial diet containing compound assessed as growth inhibition after 7 days; type: functional, organism-based; conditions: for EC50: 168 h
Helicoverpa armigera = assay: Insecticidal activity against second-instar larval stage of Helicoverpa armigera fed with artificial diet containing compound assessed as growth inhibition after 7 days; type: functional, organism-based; conditions: for EC50: 168 h

Compound | growth inhibition (GI) (Spodoptera litura) | EC50 (Spodoptera litura) | growth inhibition (GI) (Helicoverpa armigera) | EC50 (Helicoverpa armigera)
CCCC(CC)C(=O)OCCOC(=O)C(CC)CCC (stereo not drawn) | Dose-dependent effect | 2800 µg/mL (≈ 9.78 mM) | Dose-dependent effect | 2440 µg/mL (≈ 8.52 mM)
CCCCC(=O)OCC(C)OC(=O)CCCC (stereo not drawn) | Dose-dependent effect | 4240 µg/mL (≈ 17.4 mM) | Dose-dependent effect | 5540 µg/mL (≈ 22.7 mM)
CCCCCC(=O)OCC(C)OC(=O)CCCCC (stereo not drawn) | Dose-dependent effect | 3810 µg/mL (≈ 14 mM) | Dose-dependent effect | 5260 µg/mL (≈ 19.3 mM)
CCCC(CC)C(=O)OCC(C)OC(=O)C(CC)CCC (stereo not drawn) | Dose-dependent effect | 3760 µg/mL (≈ 12.5 mM) | Dose-dependent effect | 4860 µg/mL (≈ 16.2 mM)
CCCC(=O)OCC(C)COC(=O)CCC | Dose-dependent effect | 4360 µg/mL (≈ 18.9 mM) | Dose-dependent effect | 4230 µg/mL (≈ 18.4 mM)
CC(COC(=O)C(C)C)COC(=O)C(C)C | Dose-dependent effect | 7540 µg/mL (≈ 32.7 mM) | Dose-dependent effect | 8170 µg/mL (≈ 35.5 mM)
CCCCC(=O)OCC(C)COC(=O)CCCC | Dose-dependent effect | 7020 µg/mL (≈ 27.2 mM) | Dose-dependent effect | 7840 µg/mL (≈ 30.3 mM)
CCCCCC(=O)OCC(C)COC(=O)CCCCC | Dose-dependent effect | 7580 µg/mL (≈ 26.5 mM) | Dose-dependent effect | 7760 µg/mL (≈ 27.1 mM)
CCCCCCCC(=O)OCC(C)COC(=O)CCCCCCC | Dose-dependent effect | 6210 µg/mL (≈ 18.1 mM) | Dose-dependent effect | 4540 µg/mL (≈ 13.3 mM)
CCCC(CC)C(=O)OC1CCC(OC2CCC(OC(=O)C(CC)CCC)CC2)CC1 (stereo not drawn) [4-(4-O-(2-ETHYL)HEXANOYLCYCLOHEXYLOXY)-CYCLOHEXYL-(2-ETHYL)HEXANOATE] | Dose-dependent effect | 6270 µg/mL (≈ 14.3 mM) | Dose-dependent effect | 7000 µg/mL (≈ 16 mM)
CCCC(=O)OC1CCC(OC2CCC(OC(=O)CCC)CC2)CC1 (stereo not drawn) [4-(4-O-BUTANOYLCYCLOHEXYLOXY)-CYCLOHEXYL BUTANOATE] | Dose-dependent effect | 6120 µg/mL (≈ 17.3 mM) | Dose-dependent effect | 7230 µg/mL (≈ 20.4 mM)
CC(C)C(=O)OC1CCC(OC2CCC(OC(=O)C(C)C)CC2)CC1 (stereo not drawn) [4-(4-O-ISOBUTANOYLCYCLOHEXYLOXY)-CYCLOHEXYL ISOBUTANOATE] | Dose-dependent effect | 7860 µg/mL (≈ 22.2 mM) | Dose-dependent effect | 8110 µg/mL (≈ 22.9 mM)
CCCCCCCC(=O)OC1CCC(OC2CCC(OC(=O)CCCCCCC)CC2)CC1 (stereo not drawn) [4-(4-O-OCTANOYLCYCLOHEXYLOXY)-CYCLOHEXYL OCTANOATE] | Dose-dependent effect | 5760 µg/mL (≈ 12.3 mM) | Dose-dependent effect | 6340 µg/mL (≈ 13.6 mM)
CCCCC(=O)OC1CCC(OC2CCC(OC(=O)CCCC)CC2)CC1 (stereo not drawn) [4-(4-O-PENTANOYLCYCLOHEXYLOXY)-CYCLOHEXYL PENTANOATE] | Dose-dependent effect | 7890 µg/mL (≈ 20.6 mM) | Dose-dependent effect | 8240 µg/mL (≈ 21.5 mM)
CCCC(=O)OCCOCCOC(=O)CCC [DIETHYLENE GLYCOL DIBUTANOATE] | Dose-dependent effect | 1760 µg/mL (≈ 7.15 mM) | Dose-dependent effect | 2890 µg/mL (≈ 11.7 mM)
CCCCCC(=O)OCCOCCOC(=O)CCCCC [DIETHYLENE GLYCOL DIHEXANOATE] | Dose-dependent effect | 1940 µg/mL (≈ 6.42 mM) | Dose-dependent effect | 3900 µg/mL (≈ 12.9 mM)
CC(C)C(=O)OCCOCCOC(=O)C(C)C [DIETHYLENE GLYCOL DIISOBUTANOATE] | Dose-dependent effect | 5120 µg/mL (≈ 20.8 mM) | Dose-dependent effect | 6450 µg/mL (≈ 26.2 mM)
